Experimental data reported in US20240226357A1, “Sanitization Method for Affinity Chromatography Matrices” (priority 2015, published 2024).
Like-named read-outs stand apart in the source and are kept apart here.

Key:
Fab = conditions: Capto L, compared to PBS control
Procedure: A PreDictor™ (GE Healthcare) 96-well filter plate with 6 microliters Capto L in each well was subjected to the following procedure: • Removal of PreDictor storage solution (20% Ethanol) • Wash: 3×200 μl 20 mM phosphate, 150 mM NaCl pH 7.4 • Wash 3×200 μl MilliQ • Addition of 600 μl SIP solutions and 20 mM phosphate, 150 mM NaCl pH 7.4 (control) (48 solutions and duplicates in plate) • Sealing of bottom and top of the plates with Parafilm • Incubation in SIP solutions for 4 or 24 hours with shaking at 450 rpm • Liquids were removed by centrifugation (500×g, 1 min).
The static binding capacity (SBC) of a Fab was determined by: • 1. Removal of SIP solutions • 2. Wash: 1x600 μl MilliQ, 1x600 μl PBS • 3. Equilibration: 3x200 μl 20 mM phosphate, 150 mM NaCl pH 7.4 • 4. Sample loading: 200 μl Fab at a concentration of 2.5 mg/mL, incubation 10 min and 90 min at 1100 rpm • 5. Collection of unbound sample in UV-readable plates and measurement of UV absorbance at 280 (and 254 nm)
Liquids were removed by centrifugation (500×g, 1 min).
The UV absorbance of the PBS buffer at 280 nm (path check on) was subtracted from the UV absorbance of the flow through fraction (A280-blank280)
The concentration in the flow through fraction was calculated using a standard curve (A280-blank280)/1.2796
[formula] • Vsample=200μl • Vmedium=6 μl • Vr=6+0.6*Vmedium=9.6 • Vr: The retained volume i.e. filter volume (6 μl) and liquid volume in resin (0.6*6)

[1] = test system: Bacillus subtilis (spores); experiment: Disinfectant challenge test in Capto L 50% slurry, viable count of spores; assay type: cell-based; conditions: for Log10 reduction of Bacillus subtilis spores: mean of duplicates
Procedure: (§1) The purpose of this investigation was to evaluate the bactericidal and sporicidal effect on • bacterial spores and bacteria of eight disinfectants as well as PBS as reference added to • Capto L 50% slurry. The effect was tested with contact times of 0 and 15 minutes as well as • 1, 4, and 24 hours.
(§2) The test was performed in slurries of Capto L 50% and disinfectants. Microorganisms were • added at a concentration of approximately 10^7 cfu/mL to the suspension and the reducing effect was evaluated after given time intervals by neutralizing the disinfectant. […] The results were evaluated with regard to log10 reductions of the microorganisms Bacillus subtilis (spores) and Pseudomonas aeruginosa (vegetative bacteria).
(§3) 10^7 cfu/mL of the microorganism was added to 10 mL of Capto L 50% slurry with disinfectant. Samples were mixed and duplicate samples of 0.1 mL were added to 50 mL of neutralizing agent (0.075 M phosphate buffer with 0.3% lecithin, 3.0% Tween 80, 0.5% sodium thiosulfate and 0.1% L-histidine). The total solution was analyzed by filtrating fractions corresponding to 10-times serial dilutions. Filters were rinsed three times with 100 mL of 0.9% NaCl. As positive control each microorganism was added to 50 mL of neutralizing agent, the same amount added as for the disinfectant challenge tests. The total solution was analyzed by filtrating fractions corresponding to 10-times serial dilutions. Filters were rinsed three times with 100 mL of 0.9% NaCl. Filters were incubated on TSA (Trypticase Soy Agar) at 30-35° C. for 2-5 days. Preliminary reading was performed after 1-3 days. The reduction of microorganisms was calculated as the log10 of the surviving microorganisms as compared to that of the positive control.

[2] = test system: Pseudomonas aeruginosa (vegetative bacteria); experiment: Disinfectant challenge test in Capto L 50% slurry, viable count of vegetative bacteria; assay type: cell-based; conditions: mean of duplicates
Procedure: as §1, §2, §3

[3] = test system: monoclonal antibody immobilized on a Biacore chip; experiment: Biacore (SPR) binding kinetics of ligands before and after incubation in 0.1 M peracetic acid; conditions: ligand incubated for 0 to 24 h in 0.1 M PAA
Procedure: The kinetics was measured by Surface Plasmon Resonance on a Biacore™ instrument. […] Reference sample (0 h) was withdrawn, 100 μl and buffer exchanged to 50 mM Ammonium Bicarbonate. • 4. 10% 1 M PAA was added and the incubations started. • 5. Samples were withdrawn after 1, 2, 4, 8, 16 and 24 h, 100 μl and buffer exchanged to 50 mM Ammonium Bicarbonate to stop the oxidation reaction. • 6. The concentrations were measured in all samples by measuring the UV absorbance at 276 nm. • 7. The samples were then analyzed on LC-MS and Biacore.

[4] = 4 h incubation in SIP solution, 90' incubation with Fab sample
[5] = 24 h incubation in SIP solution, 10' incubation with Fab sample

CC(=O)OO [0.1M Peracetic acid, peracetic acid]
Relative remaining SBC (%) (Fab; 4 h incubation in SIP solution, 10' incubation with Fab sample, listed as 100 mM Peracetic acid): 109%
Relative remaining SBC (%) (Fab; 4 h incubation in SIP solution, 90' incubation with Fab sample, listed as 100 mM Peracetic acid): 101%
Relative remaining SBC (%) (Fab; 24 h incubation in SIP solution, 10' incubation with Fab sample, listed as 100 mM Peracetic acid): 107%
Killing of B. subtilis spores (in words) ([1]; among the tested disinfectants): capable of efficiently killing B. subtilis spores
Log10 reduction of Bacillus subtilis spores ([1]; contact time 0 min): 5.6 log10
Log10 reduction of Bacillus subtilis spores ([1]; contact time 15 min): >6.9 log10
Log10 reduction of Bacillus subtilis spores ([1]; contact time 1 hour): >6.9 log10
Log10 reduction of Bacillus subtilis spores ([1]; contact time 4 hours): >6.9 log10
Log10 reduction of Bacillus subtilis spores ([1]; contact time 24 hours): >6.9 log10
Log10 reduction of Pseudomonas aeruginosa ([2]; contact time 0 min): >6.9 log10
Log10 reduction of Pseudomonas aeruginosa ([2]; contact time 15 min): >6.9 log10
Log10 reduction of Pseudomonas aeruginosa ([2]; contact time 1 hour): >6.9 log10
Log10 reduction of Pseudomonas aeruginosa ([2]; contact time 4 hours): >6.9 log10
Log10 reduction of Pseudomonas aeruginosa ([2]; contact time 24 hours): >6.9 log10

N=C(NCCCCCCNC(=N)NC(=N)Nc1ccc(Cl)cc1)NC(=N)Nc1ccc(Cl)cc1.O=C(O)[C@H](O)[C@@H](O)[C@H](O)[C@H](O)CO.O=C(O)[C@H](O)[C@@H](O)[C@H](O)[C@H](O)CO [2% Chlorhexidine digluconale, Chlorhexidine digluconale]
Log10 reduction of Bacillus subtilis spores ([1]; contact time 0 min): 1.3 log10
Log10 reduction of Bacillus subtilis spores ([1]; contact time 15 min): 1.2 log10
Log10 reduction of Bacillus subtilis spores ([1]; contact time 1 hour): 0.7 log10
Log10 reduction of Bacillus subtilis spores ([1]; contact time 4 hours): 1.6 log10
Log10 reduction of Bacillus subtilis spores ([1]; contact time 24 hours): 0.2 log10
Log10 reduction of Pseudomonas aeruginosa ([2]; contact time 0 min): >6.9 log10
Log10 reduction of Pseudomonas aeruginosa ([2]; contact time 15 min): >6.9 log10
Log10 reduction of Pseudomonas aeruginosa ([2]; contact time 1 hour): >6.9 log10
Log10 reduction of Pseudomonas aeruginosa ([2]; contact time 4 hours): >6.9 log10
Log10 reduction of Pseudomonas aeruginosa ([2]; contact time 24 hours): >6.9 log10

OO [5% H2O2, hydrogen peroxide]
Relative remaining SBC (%) (Fab; [4]): 102%
Relative remaining SBC (%) (Fab; [5]): 102%

CC(=O)OO [500 mM Peracetic acid, Peracetic acid]
Relative remaining SBC (%) (Fab; [4]): 103%
Relative remaining SBC (%) (Fab; [5]): 97%
Relative remaining SBC (%) (Fab; 24 h incubation in SIP solution, 90' incubation with Fab sample): 102%

rPrA: recombinant Protein A
Affinity before and after SIP [3]: some loss in affinity with increasing SIP treatment
